Molecules are shown by their SMILES. Where two headings read alike, the source gives them in different places.

In general, IC50 refers to the concentration that gives 50% inhibition.

In the assay the target is neutrophil elastase (Homo sapiens (Human), UniProt P08246). As to the kind of experiment: biochemical. Type of assay: biochemical.
Where [1] appears, read: Neutrophil Elastase assay, substrate MeOSuc-Ala-Ala-Pro-Val-AMC, read-out: IC50.

Chain of neutrophil elastase (P08246 whole entry, looked up): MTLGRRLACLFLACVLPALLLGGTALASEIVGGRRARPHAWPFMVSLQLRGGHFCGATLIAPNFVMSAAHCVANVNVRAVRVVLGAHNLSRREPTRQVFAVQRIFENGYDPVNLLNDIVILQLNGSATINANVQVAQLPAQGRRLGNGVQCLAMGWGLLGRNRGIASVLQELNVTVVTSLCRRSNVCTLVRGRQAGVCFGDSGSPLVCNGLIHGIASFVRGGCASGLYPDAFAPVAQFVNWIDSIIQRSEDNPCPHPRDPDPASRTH
Protocol: Human Neutrophil Elastase Assay
All other materials were of the highest grade commercially available.
The following buffers were used: Compound buffer: 100 mM Tris, 500 mM NaCl, adjusted to pH 7.5; Assay buffer: 100 mM Tris, 500 mM NaCl, adjusted to pH 7.5, containing 0.01% BSA.
Assay conditions: Test compounds were prediluted in DMSO and subsequently in compound buffer (5% DMSO final). […] After inactivation of the enzyme, fluorescence intensities were measured at 380 nm excitation and 460 nm emission wavelengths.
Each plate contains wells with a high value control (DMSO+enzyme+substrate) and wells with a low value control (DMSO+inactivated enzyme+substrate). IC50 values were estimated using a sigmoidal concentration response curve with variable slope. Means of low values were taken as 0%, means of high values as 100%.

In the case of `CN1C(=O)N(c2cncc(Cl)c2)C2=C(C(=O)CC2)C1c1ccc(C#N)cc1S(C)(=O)=O` (stereo not drawn) [D.3.4], the half-maximal inhibitory concentration (IC50) under setting [1] worked out at 8.1 nM.

For `COCCS(=O)(=O)c1cc(C#N)ccc1C1C2=C(CCC2=O)N(c2cccc(C(F)(F)F)c2)C(=O)N1C` (stereo not drawn) [B.1.4], the half-inhibitory concentration (IC50) under setting [1] was less than 1 nM.

For `N#Cc1ccc(C2NC(=O)N(c3cccc(C(F)(F)F)c3)C3=C2C(=O)CC3)c(S(=O)(=O)CCCO)c1` (stereo not drawn) [Example B.1, 4-[2,5-Dioxo-1-(3-trifluoromethyl-phenyl)-2,3,4,5,6,7-hexahydro-1H-cyclopentapyrimidin-4-yl]-3-(3-hydroxy-propane-1-sulfonyl)-benzonitrile], the IC50 under setting [1] was found to be 2.1 nM.

As for `CN1C(=O)N(c2cc(C(F)(F)F)ccn2)C2=C(C(=O)CC2)C1c1ccc(C#N)cc1S(C)(=O)=O` (stereo not drawn) [D.3.2], the IC50 (read-out: IC50) is 9.5 nM.

`CN1C(=O)N(c2cccc(C(F)(F)F)c2)C2=C(C(=O)CC2)C1c1ccc(C#N)cc1CO` (stereo not drawn) [Example A.1, 3-Hydroxymethyl-4-[3-methyl-2,5-dioxo-1-(3-trifluoromethyl-phenyl)-2,3,4,5,6,7-hexahydro-1H-cyclopentapyrimidin-4-yl]-benzonitrile]: under “read-out: IC50”, the 50% inhibitory concentration (IC50) amounted to 1.6 nM.

`CNC(=O)N1C(=O)N(c2cncc(Br)c2)C2=C(C(=O)CC2)C1c1ccc(C#N)cc1S(C)(=O)=O` (stereo not drawn) [D.4.6]: the half-maximal inhibitory concentration (IC50) under setting [1] was found to be 1.2 nM.

With `CCS(=O)(=O)c1cc(C#N)ccc1C1C2=C(CCC2=O)N(c2ccnc(C(F)(F)F)c2)C(=O)N1C` (single isomer, unassigned) [Example D.3A, 3-Ethanesulfonyl-4-[3-methyl-2,5-dioxo-1-(2-trifluoromethyl-pyridin-4-yl)-2,3,4,5,6,7-hexahydro-1H-cyclopentapyrimidin-4-yl]-benzonitrile], the 50% inhibitory concentration (IC50) (IC50) came to 2810 nM.

Take `CCS(=O)(=O)c1cc(C#N)ccc1C1C2=C(CCC2=O)N(c2ccnc(C(F)(F)F)c2)C(=O)N1C` (racemic) [Example D.3, 3-Ethanesulfonyl-4-[3-methyl-2,5-dioxo-1-(2-trifluoromethyl-pyridin-4-yl)-2,3,4,5,6,7-hexahydro-1H-cyclopentapyrimidin-4-yl]-benzonitrile]: where the note is “read-out: IC50”, the IC50 was 4 nM.

As to `CC[S+]([O-])c1cc(C#N)ccc1C1NC(=O)N(c2cccc(C(F)(F)F)c2)C2=C1C(=O)CC2` (single isomer, unassigned) [Example C.4.2, 4-[2,5-Dioxo-1-(3-trifluoromethyl-phenyl)-2,3,4,5,6,7-hexahydro-1H-cyclopentapyrimidin-4-yl]-3-ethanesulfinyl-benzonitrile], where the note is “read-out: IC50”, the IC50 came out at 8.9 nM.

The compound `CCNC(=O)N1C(=O)N(c2ccnc(C(F)(F)F)c2)C2=C(C(=O)CC2)C1c1ccc(C#N)cc1S(=O)(=O)CC` (racemic) [Example D.4.1, 4-(4-cyano-2-ethanesulfonyl-phenyl)-2,5-dioxo-1-(2-trifluoromethyl-pyridin-4-yl)-1,2,4,5,6,7-hexahydro-cyclopentapyrimidine-3-carboxylic acid ethylamide] returned an IC50 (IC50) of less than 1 nM.

The compound `CCS(=O)(=O)c1cc(C#N)ccc1C1NC(=O)N(c2cccc(C(F)F)c2)C2=C1C(=O)CC2` (single isomer, unassigned) [Example D.5B, 4-[1-(3-Difluoromethyl-phenyl)-2,5-dioxo-2,3,4,5,6,7-hexahydro-1H-cyclopentapyrimidin-4-yl]-3-ethanesulfonyl-benzonitrile] had an IC50 (IC50) of 892 nM.

Consider `CCS(=O)(=O)c1cc(C#N)ccc1C1NC(=O)N(c2ccnc(C(F)(F)F)c2)C2=C1C(=O)CC2` (stereo not drawn) [Example D.2, 4-[2,5-Dioxo-1-(2-trifluoromethyl-pyridin-4-yl)-2,3,4,5,6,7-hexahydro-1H-cyclopentapyrimidin-4-yl]-3-ethanesulfonyl-benzonitrile], for which, under setting [1], the IC50 turned out to be 24 nM.

With `CC[S+]([O-])c1cc(C#N)ccc1C1C2=C(CCC2=O)N(c2cccc(C(F)(F)F)c2)C(=O)N1C(=O)NC` (single isomer, unassigned) [Example C.6.1, 4-(4-Cyano-2-ethanesulfinyl-phenyl)-2,5-dioxo-1-(3-trifluoromethyl-phenyl)-1,2,4,5,6,7-hexahydro-cyclopentapyrimidine-3-carboxylic acid methylamide], the IC50 (read-out: IC50) was less than 1 nM.

On to `CN1C(=O)N(c2cccc(C(F)(F)F)c2)C2=C(C(=O)CC2)C1c1ccc(C#N)cc1CO` (single isomer, unassigned) [Example A.1B, 3-Hydroxymethyl-4-[3-methyl-2,5-dioxo-1-(3-trifluoromethyl-phenyl)-2,3,4,5,6,7-hexahydro-1H-cyclopentapyrimidin-4-yl]-benzonitrile], for which the half-inhibitory concentration (IC50) (IC50) worked out at 2780 nM.

Regarding `CNC(=O)N1C(=O)N(c2cncc(C(F)(F)F)c2)C2=C(C(=O)CC2)C1c1ccc(C#N)cc1S(C)(=O)=O` (stereo not drawn) [D.4.2], the IC50 under setting [1] is less than 1 nM.

On to `CN1C(=O)N(c2cncc(C(F)(F)F)c2)C2=C(C(=O)CC2)C1c1ccc(C#N)cc1S(C)(=O)=O` (stereo not drawn) [D.3.1], for which, under setting [1], the 50% inhibitory concentration (IC50) worked out at 8.8 nM.

In the case of `CS(=O)(=O)c1cc(C#N)ccc1C1C2=C(CCC2=O)N(c2cccc(C(F)(F)F)c2)C(=O)N1CCO` (stereo not drawn) [Example E.1, 4-[3-(2-Hydroxy-ethyl)-2,5-dioxo-1-(3-trifluoromethyl-phenyl)-2,3,4,5,6,7-hexahydro-1H-cyclopentapyrimidin-4-yl]-3-methanesulfonyl-benzonitrile], under setting [1], the IC50 is less than 1 nM.

Take `CC[S+]([O-])c1cc(C#N)ccc1C1C2=C(CCC2=O)N(c2cccc(C(F)(F)F)c2)C(=O)N1C(=O)NC` (single isomer, unassigned) [Example C.6.2, 4-(4-Cyano-2-ethanesulfinyl-phenyl)-2,5-dioxo-1-(3-trifluoromethyl-phenyl)-1,2,4,5,6,7-hexahydro-cyclopentapyrimidine-3-carboxylic acid methylamide]: the IC50 (read-out: IC50) was less than 1 nM.

As for `CCNC(=O)N1C(=O)N(c2cncc(C(F)(F)F)c2)C2=C(C(=O)CC2)C1c1ccc(C#N)cc1S(C)(=O)=O` (stereo not drawn) [D.4.3], the IC50 under setting [1] is less than 1 nM.

For the compound `CCS(=O)(=O)c1cc(C#N)ccc1C1NC(=O)N(c2cccc(C(F)F)c2)C2=C1C(=O)CC2` (racemic) [Example D.5, 4-[1-(3-Difluoromethyl-phenyl)-2,5-dioxo-2,3,4,5,6,7-hexahydro-1H-cyclopentapyrimidin-4-yl]-3-ethanesulfonyl-benzonitrile], for the setting “read-out: IC50”, the 50% inhibitory concentration (IC50) is 5.5 nM.

For `CS(=O)(=O)c1cc(C#N)ccc1C1NC(=O)N(c2cncc(C(F)(F)F)c2)C2=C1C(=O)CC2` (stereo not drawn) [D.2.1], the concentration for half-maximal inhibition (IC50) under setting [1] was determined as 60 nM.

Regarding `CCNC(=O)N1C(=O)N(c2cncc(Cl)c2)C2=C(C(=O)CC2)C1c1ccc(C#N)cc1S(C)(=O)=O` (stereo not drawn) [D.4.9], under setting [1], the IC50 is less than 1 nM.

As to `CS(=O)(=O)c1cc(C#N)ccc1C1NC(=O)N(c2cncc(Cl)c2)C2=C1C(=O)CC2` (stereo not drawn) [D.2.4], under setting [1], the concentration for half-maximal inhibition (IC50) was found to be 103 nM.

Turning to `CS(=O)(=O)c1cc(C#N)ccc1C1NC(=O)N(c2cc(C(F)(F)F)ccn2)C2=C1C(=O)CC2` (stereo not drawn) [D.2.2], the IC50 under setting [1] amounted to 65 nM.

With `CCNC(=O)N1C(=O)N(c2ccnc(C(F)(F)F)c2)C2=C(C(=O)CC2)C1c1ccc(C#N)cc1S(=O)(=O)CC` (single isomer, unassigned) [Example D.4.1B, 4-(4-cyano-2-ethanesulfonyl-phenyl)-2,5-dioxo-1-(2-trifluoromethyl-pyridin-4-yl)-1,2,4,5,6,7-hexahydro-cyclopentapyrimidine-3-carboxylic acid ethylamide], the IC50 under setting [1] worked out at 338 nM.

`CCS(=O)(=O)c1cc(C#N)ccc1C1C2=C(CCC2=O)N(c2cccc(C(F)F)c2)C(=O)N1C` (stereo not drawn) [Example D.6, 4-[1-(3-Difluoromethyl-phenyl)-3-methyl-2,5-dioxo-2,3,4,5,6,7-hexahydro-1H-cyclopentapyrimidin-4-yl]-3-ethanesulfonyl-benzonitrile]: the IC50 (read-out: IC50) is less than 1 nM.

With `CCS(=O)(=O)c1cc(C#N)ccc1C1C2=C(CCC2=O)N(c2ccnc(C(F)(F)F)c2)C(=O)N1C(=O)NC` (stereo not drawn) [Example D.4, 4-(4-Cyano-2-ethanesulfonyl-phenyl)-2,5-dioxo-1-(2-trifluoromethyl-pyridin-4-yl)-1,2,4,5,6,7-hexahydro-cyclopentapyrimidine-3-carboxylic acid methylamide], the IC50 under setting [1] was less than 1 nM.

Take `COCCS(=O)(=O)c1cc(C#N)ccc1C1NC(=O)N(c2cccc(C(F)(F)F)c2)C2=C1C(=O)CC2` (stereo not drawn) [B.1.1]: the IC50 under setting [1] worked out at 5.7 nM.

Turning to `CN1C(=O)N(c2cccc(C(F)(F)F)c2)C2=C(C(=O)CC2)C1c1ccc(C#N)cc1[S+](C)[O-]` (single isomer, unassigned) [Example C.2B, 3-Methanesulfinyl-4-[3-methyl-2,5-dioxo-1-(3-trifluoromethyl-phenyl)-2,3,4,5,6,7-hexahydro-1H-cyclopentapyrimidin-4-yl]-benzonitrile], the IC50 under setting [1] is 13 nM.

Regarding `CCS(=O)(=O)c1cc(C#N)ccc1C1C2=C(CCC2=O)N(c2cccc(C(F)F)c2)C(=O)N1C(=O)NC` (stereo not drawn) [Example D.7, 4-(4-Cyano-2-ethanesulfonyl-phenyl)-1-(3-difluoromethyl-phenyl)-2,5-dioxo-1,2,4,5,6,7-hexahydro-cyclopentapyrimidine-3-carboxylic acid methylamide], under “read-out: IC50”, the IC50 was less than 1 nM.

On to `CC[S+]([O-])c1cc(C#N)ccc1C1NC(=O)N(c2cccc(C(F)(F)F)c2)C2=C1C(=O)CC2` (single isomer, unassigned) [Example C.4.1, 4-[2,5-Dioxo-1-(3-trifluoromethyl-phenyl)-2,3,4,5,6,7-hexahydro-1H-cyclopentapyrimidin-4-yl]-3-ethanesulfinyl-benzonitrile], for which the IC50 (read-out: IC50) stood at 5.2 nM.

`CS(=O)(=O)c1cc(C#N)ccc1C1NC(=O)N(c2cncc(Br)c2)C2=C1C(=O)CC2` (stereo not drawn) [D.2.3]: the 50% inhibitory concentration (IC50) under setting [1] stood at 101 nM.

Regarding `CCNC(=O)N1C(=O)N(c2ccnc(C(F)(F)F)c2)C2=C(C(=O)CC2)C1c1ccc(C#N)cc1S(C)(=O)=O` (single isomer, unassigned) [D.4.10], the IC50 under setting [1] was less than 1 nM.

Consider `CN1C(=O)N(c2cccc(C(F)(F)F)c2)C2=C(C(=O)CC2)C1c1ccc(C#N)cc1S(=O)(=O)CCO` (single isomer, unassigned) [Example B.1.2A], for which, where the note is “IC50, Neutrophil Elastase assay, substrate MeOSuc-Ala-Ala-Pro-Val-AMC”, the IC50 was 224 nM.

As to `CN1C(=O)N(c2cncc(Br)c2)C2=C(C(=O)CC2)C1c1ccc(C#N)cc1S(C)(=O)=O` (stereo not drawn) [D.3.3], the IC50 under setting [1] was found to be 13 nM.

With `CCNC(=O)N1C(=O)N(c2cncc(Br)c2)C2=C(C(=O)CC2)C1c1ccc(C#N)cc1S(C)(=O)=O` (stereo not drawn) [D.4.7], under setting [1], the IC50 is less than 1 nM.
